Reference: US20240317727A1 (Duke University, priority 2018, published 2024)

Biological target: T1, recombinant HSF1 DNA-binding domain (DBD) (Homo sapiens, UniProt Q00613)
T1 sequence (Q00613 15-120): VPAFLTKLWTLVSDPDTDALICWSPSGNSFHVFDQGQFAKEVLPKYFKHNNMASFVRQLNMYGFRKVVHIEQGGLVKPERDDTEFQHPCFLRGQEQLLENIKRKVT
Assay: Differential Scanning Fluorimetry (DSF), HSF1 DBD melting temperature
Conditions: 5 μM HSF1 DBD, 25PM Compound, positive = stabilizes, negative = destabilizes HSF1

Row | ΔTm at 25 µM (Table 1) | ΔTm at 25 µM (Table 3) | SMILES
1 | 1.9 °C |  | O=c1c(Nc2ccc(F)cc2)c(Nc2ccc(Cl)c([N+](=O)[O-])c2)c1=O [Compound 0002, 3-(4-chloro-3-nitro-anilino)-4-(4-fluoroanilino)cyclobut-3-ene-1,2-dione]
2 |  | 1.9 °C | O=c1c(Nc2ccc(F)cc2)c(Nc2ccc(Cl)c([N+](=O)[O-])c2)c1=O [Compound 002, 3-(4-chloro-3-nitro-anilino)-4-(4-fluoroanilino)cyclobut-3-ene-1,2-dione]
3 | 1.78 °C |  | O=C(Nc1ccc(F)cc1)Nc1cccc(C(F)(F)F)c1 [Compound 0003, 1-(4-fluorophenyl)-3-(3-(trifluoromethyl)phenyl)urea]
4 |  | 1.78 °C | O=C(Nc1ccc(F)cc1)Nc1cccc(C(F)(F)F)c1 [Compound 003, 1-(4-fluorophenyl)-3-(3-(trifluoromethyl)phenyl)urea]
5 | -9.46 °C |  | Cc1ccc(CNC(=O)CSc2nnc(-c3cccc(N)c3)n2-c2ccccc2)cc1 [Compound 0004]
6 |  | 5.1 °C | O=C(Nc1ccc(F)cc1)Nc1ccc(Br)c(C(F)(F)F)c1 [Compound 005, 1-(4-bromo-3-(trifluoromethyl)phenyl)-3-(4-fluorophenyl)urea]
7 |  | 2.5 °C | Cc1cccc(NC(=O)Nc2cccc(Cl)c2)c1 [Compound 006, 1-(3-chlorophenyl)-3-(m-tolyl)urea]
8 | 5.43 °C |  | O=C(N/C=C/c1ccsc1)Nc1cc(Cl)ccc1F [Compound 0010]
9 | 2.61 °C |  | COc1ccc(NC(=O)Nc2ccc(C)cc2)cc1 [Compound 0011, 1-(4-methoxyphenyl)-3-(p-tolyl)urea]
10 |  | 2.61 °C | COc1ccc(NC(=O)Nc2ccc(C)cc2)cc1 [Compound 011, 1-(4-methoxyphenyl)-3-(p-tolyl)urea]
11 | -4.56 °C |  | Cn1ncc(S(=O)(=O)Cc2ccccc2)c(Cl)c1=O [Compound 0014]
12 | 3.44 °C |  | Oc1ccccc1/C=N/NC(=S)Nc1cccc(Cl)c1 [Compound 0015]
13 | 2.75 °C |  | O=c1c(Nc2ccc(F)c(F)c2)c(Nc2ccc(Cl)c(S(=O)(=O)C(F)(F)F)c2)c1=O [Compound 0016, 3-[4-chloro-3-(trifluoromethylsulfonyl)anilino]-4-(3,4-difluoroanilino)cyclobut-3-ene-1,2-dione]
14 |  | 2.75 °C | O=c1c(Nc2ccc(F)c(F)c2)c(Nc2ccc(Cl)c(S(=O)(=O)C(F)(F)F)c2)c1=O [Compound 016, 3-[4-chloro-3-(trifluoromethylsulfonyl)anilino]-4-(3,4-difluoroanilino)cyclobut-3-ene-1,2-dione]
15 | 2.44 °C |  | O=C(Nc1ccc(Cl)cc1)Nc1ccc(Cl)cc1 [Compound 0018, 1,3-bis(4-chlorophenyl)urea]
16 |  | 2.44 °C | O=C(Nc1ccc(Cl)cc1)Nc1ccc(Cl)cc1 [Compound 018, 1,3-bis(4-chlorophenyl)urea]
17 | 5.2 °C |  | O=C(Nc1cccc(F)c1)Nc1ccc(Cl)c([N+](=O)[O-])c1 [Compound 0020, 1-(4-chloro-3-nitrophenyl)-3-(3-fluorophenyl)urea]
18 |  | 5.2 °C | O=C(Nc1cccc(F)c1)Nc1ccc(Cl)c([N+](=O)[O-])c1 [Compound 020, 1-(4-chloro-3-nitrophenyl)-3-(3-fluorophenyl)urea]
19 | -9.19 °C |  | CCOC(=O)c1c(Cl)c2ccccc2oc1=O [Compound 0021]

Row | ΔTm at 25 µM (Table 1) | ΔTm at 25 µM (Table 3) | SMILES
20 | 2.78 °C |  | O=C(Nc1ccccc1)Nc1ccc(Cl)c(Cl)c1 [Compound 0022, 1-(3,4-dichlorophenyl)-3-phenylurea]
21 |  | 2.78 °C | O=C(Nc1ccccc1)Nc1ccc(Cl)c(Cl)c1 [Compound 022, 1-(3,4-dichlorophenyl)-3-phenylurea]
22 | 0.67 °C |  | CN(C(=O)Nc1ccc(Cl)c([N+](=O)[O-])c1)c1ccc(F)cc1 [Compound 0023, 3-(4-chloro-3-nitro-phenyl)-1-(4-fluorophenyl)-1-methyl-urea]
23 |  | 0.67 °C | CN(C(=O)Nc1ccc(Cl)c([N+](=O)[O-])c1)c1ccc(F)cc1 [Compound 023, 3-(4-chloro-3-nitro-phenyl)-1-(4-fluorophenyl)-1-methyl-urea]
24 | 4.44 °C |  | Oc1ccc(Cl)cc1/C=N/Nc1cccc(C(F)(F)F)c1 [Compound 0024]
25 | -9.21 °C |  | Cc1ccc(CNC(=O)CSc2nnc(-c3ccc(C)cc3)n2-c2ccccc2)cc1 [Compound 0025]
26 | 5.75 °C |  | Cc1cccc(NC(=O)Nc2ccc(Cl)c([N+](=O)[O-])c2)c1 [Compound 0026, 1-(4-chloro-3-nitrophenyl)-3-(m-tolyl)urea]
27 |  | 5.75 °C | Cc1cccc(NC(=O)Nc2ccc(Cl)c([N+](=O)[O-])c2)c1 [Compound 026, 1-(4-chloro-3-nitrophenyl)-3-(m-tolyl)urea]
28 | 2.8 °C |  | O=C(Nc1ccc(F)cc1)Nc1ccc2nonc2c1 [Compound 0027, 1-(2,1,3-benzoxadiazol-5-yl)-3-(4-fluorophenyl)urea]
29 |  | 2.8 °C | O=C(Nc1ccc(F)cc1)Nc1ccc2nonc2c1 [Compound 027, 1-(2,1,3-benzoxadiazol-5-yl)-3-(4-fluorophenyl)urea]
30 | -9.69 °C |  | O=C(Nc1cccnc1)c1cc2c(s1)-c1ccccc1CC2 [Compound 0028]
31 | -8.96 °C |  | O=C(CSc1nnc(-c2ccncc2)n1-c1ccccc1)N/N=C/c1cccnc1 [Compound 0029]
32 | -8.57 °C |  | Cc1ccc(-n2c(SCC(=O)NC(C)c3ccccc3)nnc2-c2ccccc2)cc1 (stereo not shown) [Compound 0030]
33 | -6.23 °C |  | CSc1nnc(SC2=CC(=O)CC(c3ccccc3)C2)s1 (stereo not shown) [Compound 0031]
34 | 0.75 °C |  | N=C(Nc1ccc(F)cc1)Nc1ccc(Cl)c(C(F)(F)F)c1 [Compound 0032, 1-[4-chloro-3-(trifluoromethyl)phenyl]-3-(4-fluorophenyl)guanidine]
35 |  | 0.75 °C | N=C(Nc1ccc(F)cc1)Nc1ccc(Cl)c(C(F)(F)F)c1 [Compound 032, 1-[4-chloro-3-(trifluoromethyl)phenyl]-3-(4-fluorophenyl)guanidine]
36 | 1.9 °C |  | O=S1(=O)N=C(Nc2ccc(F)cc2)C(Nc2ccc(Cl)c(C(F)(F)F)c2)=N1 [Compound 0033, N3-[4-chloro-3-(trifluoromethyl)phenyl]-N4-(4-fluorophenyl)-1,1-dioxo-1,2,5-thiadiazole-3,4-diamine]
37 |  | 1.9 °C | O=S1(=O)N=C(Nc2ccc(F)cc2)C(Nc2ccc(Cl)c(C(F)(F)F)c2)=N1 [Compound 033, N3-[4-chloro-3-(trifluoromethyl)phenyl]-N4-(4-fluorophenyl)-1,1-dioxo-1,2,5-thiadiazole-3,4-diamine]
38 | 5.7 °C |  | O=C(Nc1ccc(F)c(F)c1)Nc1ccc(Cl)c([N+](=O)[O-])c1 [Compound 0034, 1-(4-chloro-3-nitrophenyl)-3-(3,4-difluorophenyl)urea]

Row | SMILES | ΔTm at 25 µM (Table 1) | ΔTm at 25 µM (Table 3)
39 | O=C(Nc1ccc(Cl)cc1)Nc1ccc(Cl)c(Cl)c1 [Compound 0001] | 4.78 °C | 
40 | O=[N+]([O-])c1cc(C(F)(F)F)cc([N+](=O)[O-])c1O/N=C1\CSCc2ccccc21 [Compound 0008] | -4.56 °C | 
41 | O=[N+]([O-])c1cc(C(F)(F)F)cc([N+](=O)[O-])c1Oc1ccc(F)cc1F [Compound 0012] | -4.73 °C | 
42 | COC(=O)c1cc(C#N)c(Sc2c([N+](=O)[O-])cc(C(F)(F)F)cc2[N+](=O)[O-])nc1C(OC)OC [Compound 0013] | -7.4 °C | 
43 | O=C(Nc1ccc(F)cc1)Nc1ccc(Cl)c([N+](=O)[O-])c1 [Compound 017, 1-(4-chloro-3-nitrophenyl)-3-(4-fluorophenyl)urea] |  | 3 °C
